Target: T1, human PDE2A1 (Homo sapiens, UniProt O00408)
T1 construct: GST; purchased BPS Bioscience (San Diego, Calif.) 60020; host or cells: insect cells
Test: IMAP FP PDE selectivity panel, human PDE2A1
Assay type: biochemical
Details: Lab B; read-out: Human PDE2 Ki (nM) Lab B
Experimental: Selectivity for PDE2, as compared to other PDE families, was assessed using the IMAP® technology. Human PDE10A2 enzyme was prepared from cytosolic fractions of transiently transfected HEK cells.
Assays for PDE 1 through 11 were performed in parallel at room temperature in 384-well microtiter plates with an incubation volume of 20.2 μL. Solutions of test compounds were prepared in DMSO and serially diluted with DMSO to yield 30 μL of each of ten solutions differing by 3-fold in concentration, at 32 serial dilutions per plate. […] A Labcyte POD 810 (Labcyte, Sunnyvale, Calif.) was used to dispense 200 nL from each well of the titration plate to make eleven copies of the assay plate for each titration, one copy for each PDE enzyme. A solution of each enzyme (dilution from aliquots, sufficient to produce 20% substrate conversion) and a separate solution of FAM-labeled cAMP or FAM-labeled cGMP from Molecular Devices (Sunnyvale, Calif., product # R7506 or cGMP#R7508), at a final concentration of 50 nM were made in the assay buffer (10 mM Tris HCl, pH 7.2, 10 mM MgCl2, 0.05% NaN3 0.01% Tween-20, and 1 mM DTT). Note that the substrate for PDE2 is 50 nM FAM cAMP containing 1000 nM of cGMP. The enzyme and the substrate were then added to the assay plates in two consecutive additions of 10 μL and then shaken to mix. The reaction was allowed to proceed at room temperature for 60 minutes. A binding solution was then made from the kit components, comprised of 80% Solution A, 20% Solution B and binding reagent at a volume of 1/600 the total binding solution. The enzymatic reaction was stopped by addition of 60 μL of the binding solution to each well of the assay plate. The plates were sealed and shaken for 10 seconds. The plates were incubated at room temperature for one hour, then the parallel and perpendicular fluorescence was measured using a Tecan Genios Pro plate reader (Tecan, Switzerland). […] The intrinsic PDE2 inhibitory activity of a compound which may be used in accordance with the present invention may be determined by these assays.

T1 sequence (O00408 1-920 isoform O00408-2): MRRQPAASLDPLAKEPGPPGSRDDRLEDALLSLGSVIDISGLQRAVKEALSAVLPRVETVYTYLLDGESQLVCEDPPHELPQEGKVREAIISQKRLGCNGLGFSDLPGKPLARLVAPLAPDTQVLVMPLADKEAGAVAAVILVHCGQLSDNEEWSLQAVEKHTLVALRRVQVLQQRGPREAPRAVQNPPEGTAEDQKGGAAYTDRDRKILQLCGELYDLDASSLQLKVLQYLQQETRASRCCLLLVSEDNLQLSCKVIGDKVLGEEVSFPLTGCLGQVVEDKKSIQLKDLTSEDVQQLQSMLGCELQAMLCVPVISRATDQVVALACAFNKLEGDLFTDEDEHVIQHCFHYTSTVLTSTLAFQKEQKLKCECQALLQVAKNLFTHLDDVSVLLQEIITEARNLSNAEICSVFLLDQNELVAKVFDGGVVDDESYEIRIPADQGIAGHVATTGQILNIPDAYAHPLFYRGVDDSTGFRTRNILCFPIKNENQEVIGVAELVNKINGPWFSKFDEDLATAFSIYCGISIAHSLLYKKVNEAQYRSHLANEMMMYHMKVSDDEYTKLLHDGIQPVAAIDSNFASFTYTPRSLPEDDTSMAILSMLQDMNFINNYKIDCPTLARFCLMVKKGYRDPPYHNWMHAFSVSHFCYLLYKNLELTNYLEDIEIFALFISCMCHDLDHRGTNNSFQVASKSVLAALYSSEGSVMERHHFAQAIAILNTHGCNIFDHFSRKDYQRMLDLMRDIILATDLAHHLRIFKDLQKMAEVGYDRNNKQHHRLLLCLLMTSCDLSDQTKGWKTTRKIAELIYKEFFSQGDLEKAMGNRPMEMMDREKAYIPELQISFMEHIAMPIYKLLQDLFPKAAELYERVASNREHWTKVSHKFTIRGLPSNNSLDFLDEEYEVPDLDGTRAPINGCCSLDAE

| SMILES | Ki |
| --- | --- |
| Cc1cc(NC(c2ccc(C(F)(F)F)cc2Cl)C(C)(C)O)n2ncnc2n1 (single isomer, unassigned) [Example 104, (1S or R)-1-[2-Chloro-4-(trifluoromethyl)phenyl]-2-methyl-1-[(5-methyl[1,2,4]triazolo[1,5-a]pyrimidin-7-yl)amino]propan-2-ol] | ~2780 nM |
| Cc1cc(NC(c2ccc(C(F)(F)F)cc2Cl)C(C)(C)O)n2ncnc2n1 (single isomer, unassigned) [Example 105, (1R or S)-1-[2-Chloro-4-(trifluoromethyl)phenyl]-2-methyl-1-[(5-methyl[1,2,4]triazolo[1,5-a]pyrimidin-7-yl)amino]propan-2-ol] | 38 nM |
| Cc1cc(NC(c2ccc(C(C)(C)C)cc2)C(C)(C)O)n2ncnc2n1 (single isomer, unassigned) [Example 106] | > 1240 nM |
| Cc1cc(NC(c2ccc(C(C)(C)C)cc2)C(C)(C)O)n2ncnc2n1 (single isomer, unassigned) [Example 107] | 13 nM |
| Cc1cc(NC(c2ccc(C(F)(F)F)cc2F)C(C)(C)O)n2ncnc2n1 (single isomer, unassigned) [Example 114, (1S or R)-1-[2-Fluoro-4-(trifluoromethyl)phenyl]-2-methyl-1-[(5-methyl [1,2,4]triazolo [1,5-a]pyrimidin-7-yl)amino] propan-2-ol] | > 2960 nM |
| Cc1cc(NC(c2cc3ccccc3n2C)C(C)(C)O)n2ncnc2n1 (single isomer, unassigned) [Example 124, (1S or R)-2-Methyl-1-(1-methyl-1H-indol-2-yl)-1-[(5-methyl [1,2,4]triazolo [1,5-a]pyrimidin-7-yl)amino] propan-2-ol] | 79 nM |
| Cc1cc(NC(c2cc3ccccc3n2C)C(C)(C)O)n2ncnc2n1 (single isomer, unassigned) [Example 125, (1R or S)-2-Methyl-1-(1-methyl-1H-indol-2-yl)-1-[(5-methyl [1,2,4]triazolo [1,5-a]pyrimidin-7-yl)amino] propan-2-ol] | > 2960 nM |
| Cc1cc(NC(c2ccc(-c3ccccc3)cc2)C(C)(C)O)n2ncnc2n1 (single isomer, unassigned) [Example 126, (1S or R)-1-Biphenyl-4-yl-2-methyl-1-[(5-methyl[1,2,4]triazolo[1,5-a]pyrimidin-7-yl)amino]propan-2-ol] | > 2960 nM |
| Cc1cc(NC(c2ccc(-c3ccccc3)cc2)C(C)(C)O)n2ncnc2n1 (single isomer, unassigned) [Example 127, (1R or S)-1-Biphenyl-4-yl-2-methyl-1-[(5-methyl[1,2,4]triazolo[1,5-a]pyrimidin-7-yl)amino]propan-2-ol] | 21 nM |
| Cc1cc(NC(c2ccc(OC(F)(F)F)cc2C)C(C)(C)O)n2ncnc2n1 (single isomer, unassigned) [Example 128, (1S or R)-2-Methyl-1-[(5-methyl[1,2,4]triazolo[1,5-a]pyrimidin-7-yl)amino]-1-[2-methyl-4-(trifluoromethoxy)phenyl]propan-2-ol] | > 2960 nM |
| Cc1cc(NC(c2ccc(OC(F)(F)F)cc2C)C(C)(C)O)n2ncnc2n1 (single isomer, unassigned) [Example 129, (1R or S)-2-Methyl-1-[(5-methyl[1,2,4]triazolo[1,5-a]pyrimidin-7-yl)amino]-1-[2-methyl-4-(trifluoromethoxy)phenyl]propan-2-ol] | 21 nM |
| Cc1cc(NC(c2ccc(OC(F)(F)F)c(F)c2)C(C)(C)O)n2nc(C)nc2n1 (single isomer, unassigned) [Example 132, (1S or R)-1-[(2,5-Dimethyl[1,2,4]triazolo[1,5-a]pyrimidin-7-yl)amino]-1-[3-fluoro-4-(trifluoromethoxy)phenyl]-2-methylpropan-2-ol] | > 2960 nM |

Now from value to compound:

| Ki | SMILES |
| --- | --- |
| > 2960 nM | Cc1cc(N[C@H](c2ccc(OC(F)(F)F)c(F)c2)C(C)(C)O)n2ncnc2n1 (single isomer, unassigned) [Example 91] |
| 49 nM | Cc1cc(NC(c2ccc(C(F)F)cc2)C(C)(C)O)n2ncnc2n1 (single isomer, unassigned) [Example 108, (1S or R)-1-[4-(Difluoromethyl)phenyl]-2-methyl-1-[(5-methyl [1,2,4]triazolo [1,5-a]pyrimidin-7-yl)amino] propan-2-ol] |
| 905 nM | Cc1cc(NC(c2ccc(C(F)F)cc2)C(C)(C)O)n2ncnc2n1 (single isomer, unassigned) [Example 109, (1R or S)-1-[4-(Difluoromethyl)phenyl]-2-methyl-1-[(5-methyl [1,2,4]triazolo [1,5-a]pyrimidin-7-yl)amino] propan-2-ol] |
| > 2960 nM | Cc1cc(NC(c2ccc(OC(F)F)cc2)C(C)(C)O)n2ncnc2n1 (single isomer, unassigned) [Example 110, (1S or R)-1-[4-(Difluoro-methoxy)phenyl]-2-methyl-1-[(5-methyl[1,2,4]triazolo[1,5-a]pyrimidin-7-yl)amino]propan-2-ol] |
| 26 nM | Cc1cc(NC(c2ccc(OC(F)F)cc2)C(C)(C)O)n2ncnc2n1 (single isomer, unassigned) [Example 111, (1R or S)-1-[4-(Difluoro-methoxy)phenyl]-2-methyl-1-[(5-methyl[1,2,4]triazolo[1,5-a]pyrimidin-7-yl)amino]propan-2-ol] |
| > 2960 nM | Cc1cc(NC(c2ccc3c(c2)OC(F)(F)O3)C(C)(C)O)n2ncnc2n1 (single isomer, unassigned) [Example 112, (1S or R)-1-(2,2-Difluoro-1,3-benzodioxol-5-yl)-2-methyl-1-[(5-methyl[1,2,4]triazolo[1,5-a]pyrimidin-7-yl)amino]propan-2-ol] |
| 93 nM | Cc1cc(NC(c2ccc3c(c2)OC(F)(F)O3)C(C)(C)O)n2ncnc2n1 (single isomer, unassigned) [Example 113, (1R or S)-1-(2,2-Difluoro-1,3-benzodioxol-5-yl)-2-methyl-1-[(5-methyl[1,2,4]triazolo[1,5-a]pyrimidin-7-yl)amino]propan-2-ol] |
| 23 nM | Cc1cc(NC(c2ccc(C(F)(F)F)cc2F)C(C)(C)O)n2ncnc2n1 (single isomer, unassigned) [Example 115, (1R or S)-1-[2-Fluoro-4-(trifluoromethyl)phenyl]-2-methyl-1-[(5-methyl [1,2,4]triazolo [1,5-a]pyrimidin-7-yl)amino] propan-2-ol] |
| > 2960 nM | Cc1cc(NC(c2ccc(S(F)(F)(F)(F)F)cc2)C(C)(C)O)n2ncnc2n1 (single isomer, unassigned) [Example 116, (1S or R)-2-Methyl-1-[(5-methyl[1,2,4]triazolo[1,5-a]pyrimidin-7-yl)amino]-1-[4-(pentafluoro-λ^6-sulfanyl)phenyl] propan-2-ol] |
| > 2960 nM | Cc1cc(NC(c2ccc(CC(F)(F)F)cc2)C(C)(C)O)n2ncnc2n1 (single isomer, unassigned) [Example 118, (1S or R)-2-Methyl-1-[(5-methyl [1,2,4]triazolo [1,5-a]pyrimidin-7-yl)amino]-1-[4-(2,2,2-trifluoroethyl)phenyl]propan-2-ol] |
| 15 nM | Cc1cc(NC(c2ccc(CC(F)(F)F)cc2)C(C)(C)O)n2ncnc2n1 (single isomer, unassigned) [Example 119, (1R or S)-2-Methyl-1-[(5-methyl [1,2,4]triazolo [1,5-a]pyrimidin-7-yl)amino]-1-[4-(2,2,2-trifluoroethyl)phenyl]propan-2-ol] |
| > 2960 nM | Cc1cc(NC(c2ccc(C3(C)CC3)cc2)C(C)(C)O)n2ncnc2n1 (single isomer, unassigned) [Example 120, (1S or R)-2-Methyl-1-[4-(1-methyl-cyclopropyl)phenyl]-1-[(5-methyl[1,2,4]triazolo[1,5-a]pyrimidin-7-yl)amino]propan-2-ol] |
| 11 nM | Cc1cc(NC(c2ccc(C3(C)CC3)cc2)C(C)(C)O)n2ncnc2n1 (single isomer, unassigned) [Example 121, (1R or S)-2-Methyl-1-[4-(1-methyl-cyclopropyl)phenyl]-1-[(5-methyl[1,2,4]triazolo[1,5-a]pyrimidin-7-yl)amino]propan-2-ol] |
| > 2960 nM | Cc1cc(NC(c2ccc3ccccc3c2)C(C)(C)O)n2ncnc2n1 (single isomer, unassigned) [Example 122, (1S or R)-2-Methyl-1-[(5-methyl [1,2,4]triazolo [1,5-a]pyrimidin-7-yl)amino]-1-naphthalen-2-yl propan-2-ol] |
| 35 nM | Cc1cc(NC(c2ccc3ccccc3c2)C(C)(C)O)n2ncnc2n1 (single isomer, unassigned) [Example 123, (1R or S)-2-Methyl-1-[(5-methyl [1,2,4]triazolo [1,5-a]pyrimidin-7-yl)amino]-1-naphthalen-2-yl propan-2-ol] |

Source: US10357481B2 (MERCK SHARP & DOHME CORP., priority 2015, dated 2019)
